In patent US12410208B2, “(2-acetamidyl)thio-beta-D-galactopyranoside derivatives” (Idorsia Pharmaceuticals Ltd, priority 2020, dated 2025):
Like-named read-outs stand apart in the source and are kept apart here.

Biological target: biotinylated human Gal-3 (hGal-3) (Homo sapiens, UniProt P17931)
Experiment: Competitive binding assay: biotinylated hGal-3 binding to microplate-adsorbed asialofetuin (ASF), spectrophotometric
Description: If not explicitly mentioned otherwise, the inhibition data refer to the binding of biotinylated human Gal-3 (hGal-3).
Biological Assay Evaluation of Compound Inhibitory Activity (IC50)
The inhibitory activity of compounds is determined in competitive binding assays.
Briefly, compounds are serially diluted in DMSO (working dilutions).
Plates are incubated for 3 hours at 4° C., then washed with cold assay buffer (3×50 uL), incubated for 1 hour with 25 μL/well of a streptavidin-peroxidase solution (diluted in assay buffer to 80 ng/mL) at 4° C., followed by further washing steps with assay buffer (3×50 uL). Finally, 25 μL/well of ABTS substrate is added.
The calculated IC50 values may fluctuate depending on the daily assay performance. Fluctuations of this kind are known to those skilled in the art. IC50 values from several measurements are given as mean values.

[1] = Table 6, hGal-3, read-out: IC50 (Gal-3 inhibition)
[2] = Gal-3 inhibition, Table 4, read-out: IC50
[3] = Table 12, hGal-3, read-out: IC50 (Gal-3 inhibition)

Sequence of biotinylated human Gal-3 (hGal-3) (P17931 whole entry): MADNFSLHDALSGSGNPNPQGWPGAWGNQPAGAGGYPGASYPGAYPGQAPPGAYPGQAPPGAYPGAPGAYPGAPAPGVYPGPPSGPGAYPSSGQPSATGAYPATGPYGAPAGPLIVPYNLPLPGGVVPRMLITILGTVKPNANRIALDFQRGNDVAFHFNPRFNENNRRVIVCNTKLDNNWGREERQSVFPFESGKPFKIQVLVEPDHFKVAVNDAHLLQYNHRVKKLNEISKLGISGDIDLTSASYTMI

Structure (SMILES): CCN(C)C(=O)[C@H](S[C@@H]1O[C@H](CO)[C@H](O)[C@H](n2cc(-c3cc(F)c(F)c(F)c3)nn2)[C@H]1O)C(C)(C)O [Example 2.31.203R., (R)-2-(((2S,3R,4S,5R,6R)-3,5-Dihydroxy-6-(hydroxymethyl)-4-(4-(3,4,5-trifluorophenyl)-1H-1,2,3-triazol-1-yl)tetrahydro-2H-pyran-2-yl)thio)-N-ethyl-3-hydroxy-N,3-dimethylbutanamide]
- IC50 (Gal-3 inhibition, Table 3, read-out: IC50): 3.88 µM

Structure (SMILES): CC(C)(O)[C@@H](S[C@@H]1O[C@H](CO)[C@H](O)[C@H](n2cc(-c3cc(F)c(F)c(F)c3)nn2)[C@H]1O)C(=O)N1CCCC1 [Example 2.31.211R., (R)-2-(((2S,3R,4S,5R,6R)-3,5-Dihydroxy-6-(hydroxymethyl)-4-(4-(3,4,5-trifluorophenyl)-1H-1,2,3-triazol-1-yl)tetrahydro-2H-pyran-2-yl)thio)-3-hydroxy-3-methyl-1-(pyrrolidin-1-yl)butan-1-one]
- IC50 [1]: 0.31 µM

Structure (SMILES): CC(C)(O)[C@H](S[C@@H]1O[C@H](CO)[C@H](O)[C@H](n2cc(-c3cc(F)c(F)c(F)c3)nn2)[C@H]1O)C(=O)N1CCCC1 [Example 2.31.211S, (S)-2-(((2S,3R,4S,5R,6R)-3,5-Dihydroxy-6-(hydroxymethyl)-4-(4-(3,4,5-trifluorophenyl)-1H-1,2,3-triazol-1-yl)tetrahydro-2H-pyran-2-yl)thio)-3-hydroxy-3-methyl-1-(pyrrolidin-1-yl)butan-1-one]
- IC50 [1]: 0.08 µM

Structure (SMILES): O=C([C@H](S[C@@H]1O[C@H](CO)[C@H](O)[C@H](n2cc(-c3cc(F)c(F)c(F)c3)nn2)[C@H]1O)C1(O)CCOCC1)N1CCc2ccccc21 [Example 2.41.209R., (R)-2-(((2S,3R,4S,5R,6R)-3,5-Dihydroxy-6-(hydroxymethyl)-4-(4-(3,4,5-trifluorophenyl)-1H-1,2,3-triazol-1-yl)tetrahydro-2H-pyran-2-yl)thio)-2-(4-hydroxytetrahydro-2H-pyran-4-yl)-1-(indolin-1-yl)ethan-1-one]
- IC50 [2]: 1.31 µM

Structure (SMILES): CN(CCC1CCOCC1)C(=O)[C@H](S[C@@H]1O[C@H](CO)[C@H](O)[C@H](n2cc(-c3cc(F)c(F)c(F)c3)nn2)[C@H]1O)C1(O)CCOCC1 [Example 2.41.216R., (R)-2-(((2S,3R,4S,5R,6R)-3,5-Dihydroxy-6-(hydroxymethyl)-4-(4-(3,4,5-trifluorophenyl)-1H-1,2,3-triazol-1-yl)tetrahydro-2H-pyran-2-yl)thio)-2-(4-hydroxytetrahydro-2H-pyran-4-yl)-N-methyl-N-(2-(tetrahydro-2H-pyran-4-yl)ethyl)acetamide]
- IC50 [2]: 1.53 µM

Structure (SMILES): CO[C@@H]1[C@@H](n2cc(-c3cc(F)c(F)c(F)c3)nn2)[C@@H](O)[C@@H](CO)O[C@H]1SC(C(=O)N(C)C1CC(F)(F)C1)C1(O)CCC(F)(F)CC1 (stereo partly drawn) [Example 2.44.237.I., 2-(4,4-Difluoro-1-hydroxycyclohexyl)-N-(3,3-difluorocyclobutyl)-2-(((2S,3R,4S,5R,6R)-5-hydroxy-6-(hydroxymethyl)-3-methoxy-4-(4-(3,4,5-trifluorophenyl)-1H-1,2,3-triazol-1-yl)tetrahydro-2H-pyran-2-yl)thio)-N-methylacetamide]
- IC50 [3]: 0.09 µM

Structure (SMILES): CCN(C(=O)C(S[C@@H]1O[C@H](CO)[C@H](O)[C@H](n2cc(-c3cc(F)c(F)c(F)c3)nn2)[C@H]1OC)C1(O)CCC(F)(F)CC1)C1CC1 (some centres unmarked) [Example 2.44.238.I.]
- IC50 (Table 10, hGal-3, read-out: IC50 (Gal-3 inhibition)): 0.04 µM

Structure (SMILES): CO[C@@H]1[C@@H](n2cc(-c3cc(F)c(F)c(F)c3)nn2)[C@@H](O)[C@@H](CO)O[C@H]1SC(C(=O)NC1CCC(C)(C)CC1)C1(O)CCC(F)(F)CC1 (stereo partly drawn) [Example 2.44.255.I, 2-(4,4-Difluoro-1-hydroxycyclohexyl)-N-(4,4-dimethylcyclohexyl)-2-(((2S,3R,4S,5R,6R)-5-hydroxy-6-(hydroxymethyl)-3-methoxy-4-(4-(3,4,5-trifluorophenyl)-1H-1,2,3-triazol-1-yl)tetrahydro-2H-pyran-2-yl)thio)acetamide]
- IC50 [3]: 0.39 µM
